Each structure is given as a SMILES string. “And” between values parts separate entries of the source, which are not always exact repeats. Equal entries are not always repeated. Structures can show the parent of a compound that is named as a salt.

One assay has as its system U937 cells. Nature of the assay: Proliferation test ViaLight HS, U937 cells (Example 8). The format is cell-based, human. The conditions noted are these: 72 h incubation; range = multiple experiments, otherwise individual experiments. The procedure: 2C Proliferation test ViaLight® HS High Sensitivity Cytotoxicity and Cell Proliferation BioAssay Kit
This protocol allows the determination of the cytostatic and cytotoxic activities of compounds to be tested on mammalian cells in culture and was carried out essentially according to the manufacturer's recommendations.
Cells are suspended in 15 mL of their respective media and are enumerated. They are then diluted in their media in order to obtain: • 2500 cells per 90 μL per well for MRC5 cells • 5000 cells per 90 μL per well for all other cell lines. Cells are then seeded in a 96 well plate, and incubated at least 4 hours in the incubator at 37° C. in 5% CO2.
The molecules to be tested are diluted in DMEM with DMSO in order to obtain the following dilutions: • dilution at 250 μM/1% DMSO • dilution at 50 μM/1% DMSO • dilution at […] • dilution at 2 μM/1% DMSO • dilution at 400 nM/1% DMSO • dilution at 80 nM/1% DMSO For each well comprising 90 μL of cell suspension, 10 μL of a solution of the compound to be tested is added, with the 6 different concentrations. The plate is then incubated during 72 hours. One control plate is contacted with 10 μL of DMEM 1% DMSO, without compound to be tested. 50 μL of lysis buffer (test Vialight® lysis buffer) is added in each well of the control plate and the plate is incubated 10 minutes under hood.
Then, 100 μL of test buffer (test Vialight® test buffer) is added in each well and the control plate is incubated during 2 minutes. The luminescence is read in each well. The mean luminescence for each type of cells is called T0.
After the 72 h incubation, in order to determine the viability, 50 μL of lysis buffer (test Vialight® lysis buffer) is added in each well of the plates and the plates are incubated 10 minutes under hood.
Then, 100 μL of test buffer (test Vialight® test buffer) is added in each well and the plates are incubated during 2 minutes. The luminescence is read in each well. For each type of cell, the mean luminescence in the well not containing the compound is called C72 and the mean luminescence in well containing a given concentration of a compound to be tested is called T72. For each dilution (concentration of compound to be tested), T0 and T72 values are compared.
The graph is plotted for the different concentrations of compound and • GI50 (50% of growth inhibitory) is determined, this is the dose producing 50% of cell growth (intersection at Y=50); • TGI (total growth inhibitory) is determined on the graph, this is the dose producing the total arrest of the cell growth (intersection at Y=0); and • LC50 (50% of lethal concentration) is determined, this is the dose producing the death of 50% of the cells (intersection at Y=−50).
Following the protocol described in Example 2C, different compounds according to the invention have been tested for their cytostatic and cytotoxic activities on mammalian cells in culture (specifically U937 cells).
The GI50 (50% of growth inhibitory) has been determined for all the following compounds, i.e. the dose producing 50% of cell growth inhibition.
Where the GI50 provided is in the form of a range, it means that multiple experiments, whose results fall within the range indicated, were performed. Otherwise, results of individual experiments are provided.
As a reminder, the GI50 is the concentration at which growth is held to half of that of the control. Low values mean more potent growth inhibition, high ones less potent growth inhibition. `COc1cc(NC(=S)NC(=O)c2ccc(F)cc2)ccc1-c1cc2ccccc2oc1=O` [Compound 05, 4-fluoro-N-({[3-methoxy-4-(2-oxo-2H-chromen-3-yl)phenyl]amino}carbonothioyl)benzamide] returned a GI50 of 1500 nM.

`COc1cc(NC(=N)NC(=O)c2ccccc2)ccc1-c1cc2ccccc2oc1=O` [Compound 07, N-(imino{[3-methoxy-4-(2-oxo-2H-chromen-3-yl)phenyl]amino}methyl)benzamide] yielded a GI50 of 800 nM.

As for `COc1cc(NC(=S)NC(=O)/C=C/c2ccco2)ccc1-c1cc2ccccc2[nH]c1=O` [Compound 15, (2E)-3-(2-furyl)-N-({[3-methoxy-4-(2-oxo-1,2-dihydroquinolin-3-yl)phenyl]amino}carbonothioyl)acrylamide], the GI50 was 63 nM and 210 nM.

The compound `COc1cc(NC(=O)Nc2ccc(N(C)C)cc2)ccc1-c1cc2ccccc2oc1=O` [Compound 06, 1-(4-dimethylamino-phenyl)-3-[3-methoxy-4-(2-oxo-2H-chromen-3-yl)-phenyl]-urea.HCl] showed a GI50 of 580 nM.

Staying with this assay, now noted: Homo sapiens, U-937, 72 h, 72 h incubation; range = multiple experiments, otherwise individual experiments.
`COc1cc(NC(=S)NC(=O)c2ccc(F)cc2)ccc1-c1cc2ccccc2oc1=O` [Compound 05, 4-fluoro-N-({[3-methoxy-4-(2-oxo-2H-chromen-3-yl)phenyl]amino}carbonothioyl)benzamide] showed a concentration for 50% growth inhibition (GI50) of 920 nM.

`COc1cc(NC(=N)NC(=O)c2ccccc2)ccc1-c1cc2ccccc2oc1=O` [Compound 07, N-(imino{[3-methoxy-4-(2-oxo-2H-chromen-3-yl)phenyl]amino}methyl)benzamide] gave a GI50 of 630 nM.

`COc1cc(NC(=S)NC(=O)/C=C/c2ccco2)ccc1-c1cc2ccccc2n(CCO)c1=O` [Compound 21, 1-((E)-3-furan-2-yl-acryloyl)-3-{4-[1-(2-hydroxy-ethyl)-2-oxo-1,2-dihydro-quinolin-3-yl]-3-methoxy-phenyl}-thiourea]: the GI50 is ~90 nM.

Take `COC(=O)c1ccc(S(=O)(=O)Nc2ccc(-c3cc4ccccc4oc3=O)c(OC)c2)n1C` [Compound 09, methyl 5-({[3-methoxy-4-(2-oxo-2H-chromen-3-yl)phenyl]amino}sulfonyl)-1-methyl-1H-pyrrole-2-carboxylate]: the GI50 lay within 500 to 600 nM.

Take `COc1cc(N(C(C)=O)S(=O)(=O)c2cc(C)oc2C)ccc1-c1cc2ccccc2oc1=O` [Compound 23, 2,5-dimethyl-furan-3-sulfonic acid acetyl-[3-methoxy-4-(2-oxo-2H-chromen-3-yl)-phenyl]-amide]: the 50% growth inhibitory concentration (GI50) was ~500 nM.

For the compound `COc1cc(N(C)C(=N)NC(=O)/C=C/c2ccco2)ccc1-c1cc2ccccc2oc1=O` [Compound 19, N′-((E)-3-furan-2-yl-acryloyl)-N-[3-methoxy-4-(2-oxo-2H-chromen-3-yl)-phenyl]-N-methyl-guanidine], the 50% growth inhibitory concentration (GI50) is 9200 nM.

`COc1cc(NC(=N)NC(=O)/C=C/c2ccco2)ccc1-c1cc2ccccc2oc1=O` [Compound 12, (2E)-3-(2-furyl)-N-(imino{[3-methoxy-4-(2-oxo-2H-chromen-3-yl)phenyl]amino}methyl)acrylamide]: the 50% growth inhibitory concentration (GI50) lay in the range of 1600 to 2100 nM.

Compound `COc1cc(NC(=S)Nc2ccc(N3CCOCC3)nc2)ccc1-c1cc2ccccc2oc1=O` [Compound 08, 1-[3-methoxy-4-(2-oxo-2H-chromen-3-yl)-phenyl]-3-(6-morpholin-4-yl-pyridin-3-yl)-thiourea] registered a 50% growth inhibitory concentration (GI50) of 1200 nM.

For the compound `COc1cc(NC(=N)NC(=O)c2ccccc2)ccc1-c1cc2ccccc2[nH]c1=O` [Compound 22, N-Benzoyl-N′-[3-methoxy-4-(2-oxo-1,2-dihydro-quinolin-3-yl)-phenyl]-guanidine], halving of growth (GI50) required 1000 nM.

Compound `COc1cc(/N=C(\SC)N(C)C(=O)/C=C/c2ccco2)ccc1-c1cc2ccccc2oc1=O` [Compound 24, 1-((E)-3-furan-2-yl-acryloyl)-3-[3-methoxy-4-(2-oxo-2H-chromen-3-yl)-phenyl]-1,2-dimethyl-isothiourea] yielded a GI50 of 33 nM.

With `COc1cc(NS(=O)(=O)c2cc(C)oc2C)ccc1-c1cc2ccccc2oc1=O` [Compound 13, N-[3-methoxy-4-(2-oxo-2H-chromen-3-yl)phenyl]-2,5-dimethylfuran-3-sulfonamide], growth was halved (GI50) at 100 nM.

In the case of `COc1cc(/N=C(/NC(=O)/C=C/c2ccco2)SC)ccc1-c1cc2ccccc2oc1=O` [Compound 14, methyl N-[(2E)-3-(2-furyl)prop-2-enoyl]-Ar-[3-methoxy-4-(2-oxo-2H-chromen-3-yl)phenyl]imidothiocarbamate], growth was halved (GI50) at 220 nM.

With `COc1cc(NC(=S)NC(=O)/C=C/c2ccco2)ccc1-c1cc2ccccc2n(C)c1=O` [Compound 17, (2E)-3-(2-furyl)-N-({[3-methoxy-4-(1-methyl-2-oxo-1,2-dihydroquinolin-3-yl)phenyl]amino}carbonothioyl)acrylamide], the concentration for 50% growth inhibition (GI50) was determined as 45 nM.

Compound `COc1cc(/N=C(\SC)N(C)C(=O)c2ccc(F)cc2)ccc1-c1cc2ccccc2oc1=O` [Compound 25, 1-(4-fluoro-benzoyl)-3-[3-methoxy-4-(2-oxo-2H-chromen-3-yl)-phenyl]-1,2-dimethyl-isothiourea] registered a 50% growth inhibitory concentration (GI50) of 410 nM.

With `COc1cc(NC(=O)Nc2cccc(N(C)C)c2)ccc1-c1cc2ccccc2oc1=O` [Compound 18, 1-(3-dimethylamino-phenyl)-3-[3-methoxy-4-(2-oxo-2H-chromen-3-yl)-phenyl]-urea.HCl], the GI50 stood at 150 nM.

`COc1cc(NC(=S)Nc2ccc(N3CCOCC3)cc2)ccc1-c1cc2ccccc2oc1=O` [Compound 20, 1-[3-methoxy-4-(2-oxo-2H-chromen-3-yl)-phenyl]-3-(4-morpholin-4-yl-phenyl)-thiourea] yielded a concentration for 50% growth inhibition (GI50) of 1100 nM.

The compound `COc1cc(NC(=O)Nc2ccccc2)ccc1-c1cc2ccccc2oc1=O` [Compound 03, 1-[3-methoxy-4-(2-oxo-2H-chromen-3-yl)-phenyl]-3-phenyl-urea] displayed a 50% growth inhibitory concentration (GI50) of 610 nM.

With `COc1cc(NC(=O)Nc2ccc(N(C)C)cc2)ccc1-c1cc2ccccc2oc1=O` [Compound 06, 1-(4-dimethylamino-phenyl)-3-[3-methoxy-4-(2-oxo-2H-chromen-3-yl)-phenyl]-urea.HCl], growth was halved (GI50) at 320 nM.

The record behind these values is patent publication US20090203685A1, “ANTI-PROLIFERATIVE COMPOUNDS FROM A 3-ARYL-COUMARINE OR 3-ARYL-QUINOLIN-2-ONE AND USES THEREOF” (EOS (ETHICAL ONCOLOGY SCIENCE) S.P.A., priority 2006, published 2009).
